Values of other authors as cited in patent publication US20240131116A1, “METHODS AND THREAPEUTIC COMBINATIONS FOR TREATING IDIOPATHIC INTRACRANIAL HYPERTENSION AND CLUSTER HEADACHES” (NBO PHARMA LLC, priority 2021, published 2024).

Assays:
[1] = all patients treated
IIH [2] = tested on: IIH
IIH [3] = conditions: for most frequent / most common side effects / visual field grades: topiramate 100 to 150 mg daily, acetazolamide 1000 to 1500 mg/day
[4] = human, in vivo
[5] = in vivo

Molecule: CC(=O)Nc1nnc(S(N)(=O)=O)s1 [acetazolamide, N-(5-sulfamoyl-1,3,4-thiadiazol-2-yl) acetamide]
- patients who discontinued treatment due to adverse events [1]: Up to 20%
- vision (perimetric mean deviation, papilledema grade, vision-related quality of life) versus placebo (IIH [2]; maximum tolerated dose of up to 4 g/day): improved vision
- adverse events significantly more frequent than in placebo group (IIH [2]; up to 4 g/day): paresthesia, dysgeusia, fatigue, decreased carbon dioxide level, nausea, vomiting, diarrhea, and tinnitus
- most frequent / most common side effects (IIH [3]): fatigue and tingling of the hands and feet
- visual field grades (IIH [3]): Significant improvement

Molecule: NS(=O)(=O)c1ccc(N2CCCCS2(=O)=O)cc1 [sulthiame, p-(tetrahydro-2H-1,2-thiazin-2-yl)benzenesulfonamide, S,S-dioxide]
- patients with gastric complaints [4]: about 10%

Molecule: CC1(C)O[C@@H]2[C@@H](CO[C@@]3(COS(N)(=O)=O)OC(C)(C)O[C@@H]23)O1 [topiramate, 2,3:4,5-bis-O-(1-methylethylidene)-beta-D-fructopyranose sulfamate]
- weight loss, mean (IIH [3]; during 12 months period): 9.75 kg
- most frequent / most common side effects (IIH [3]): distal paresthesias, concentration difficulties and weight loss
- visual field grades (IIH [3]): Significant improvement

Molecule: L-alanyl-glycyl-L-cysteinyl-L-lysyl-L-asparagyl-L-phenylalanyl-L-phenylalanyl-L-tryptophyl-L-lysyl-L-threonyl-L-phenylalanyl-L-threonyl-L-seryl-L-cysteine (3->14)-disulfide [somatostatin]
- biological half-life [5]: 2-3 minutes
